According to patent US20120003329A1, “Use of A2B Adenosine Receptor Antagonists for Treating Pulmonary Hypertension” (Gilead Sciences, Inc., priority 2010, published 2012):

Tests used:
HPASMs [1] = test: Smooth muscle cell migration, Boyden chamber with conditional media; assay type: cell-based, human; conditions: conditional medium from HPASMs, NECA 10 μM and Compound A 100 nM, 18 hours; migration 24 hours
Description: Conditional media were collected from HPASMs treated with vehicle, NECA (10 μM), NECA (10 μM) and Compound A (100 nM), or NECA (10 μM) and an anti-IL-6 antibody (1 ng/mL, purchased from Invitrogen) for 18 hours were added to the lower wells of Boyden chamber assay systems as chemoattractants. HPASMs were allowed to migrate for 24 hours. […] It was also observed that IL-8 neutralizing antibody had no effect on cell migration. […] The released IL-6 in turn enhances smooth muscle cell migration (see FIG. 10B for illustration).

HPASMs [2] = test: Cytokine release from HPASMs (IL-6, IL-8, G-CSF); assay type: cell-based, human; conditions: NECA 10 μM with Compound A 100 nM, 18 hr
Description: (§1) HPASM were grown in smooth muscle growth medium (SMGM-2). HPAECs were grown in endothelium growth medium (EGM-2). Before treatment, cells were seeded in 24-well plates and allowed to grow to ˜80% confluency. Cells were washed and then incubated in serum free basal medium in the absence or presence of adenosine receptor agonists and antagonists. In the proliferation assays, HPASM were incubated in 50% medium collected from HPAEC cells treated with vehicle or NECA.
(§2) IL-6 and G-CSF were measured using human 30-plex luminex kit from Invitrogen (Carlsbad, Calif.). IL-8, endothelin-1, thromboxane B2 were measured using ELISA (kits obtained from Invitrogen, AssayDesigns (Ann Arbor, Mich.), and Caymen Biomedicals (Ann, Arbor, Mich.) respectively).
(§3) HPASMs were incubated in the absence or presence of NECA at various concentrations (0.1 μM, 1 μM, and 10 μM) and Compound A (100 nM) for 18 hours.

[3] = system: adenosine deaminase (ADA)-deficient mouse model of adenosine-dependent pulmonary injury; test: Vascular wall thickening in the lungs of ADA-deficient mice (H&E staining); assay type: in vivo; conditions: 1 mg/kg intraperitoneal twice daily for 14 days, lungs at postnatal day 38
Excerpt: The model system being used is the adenosine deaminase (ADA)-deficient mouse model of adenosine-dependent pulmonary injury.
This example follows the protocol described in Sun C X, et al. “Role of A2B adenosine receptor signaling in adenosine-dependent pulmonary inflammation and injury,” J. Clin. Invest., 116(8):2173-2182 (2006), which is hereby incorporated by reference.
All ADA-deficient mice were maintained on ADA enzyme therapy from birth to postnatal day 21 to prevent defects in alveolar development. Banerjee, et al. Am. J. Respir. Cell Mol. Biol. 30-38-50 (2004). ADA enzyme therapy was discontinued at postnatal day 21, and 3 days later the mice were given intraperitoneal injections of 1 mg/kg of Compound A twice daily for 14 days.
Lungs were collected from postnatal day 38 mice and prepared routinely for sectioning and H&E staining Tissues were taken from control (ADA+) mice (FIG. 3A), the ADA-deficient mice (FIG. 3B), and the ADA-deficient mouse treated with Compound A (FIG. 3C). Sections are representative of 6-8 different mice from each treatment group.

HPASMs [4] = test: Expression of collagen, extracellular matrix proteins and enzymes, real-time RT-PCR array; assay type: cell-based, human; conditions: NECA 10 μM together with Compound A 100 nM, 1.5 hours
Description: (§4) Gene expression was determined using real-time RT-PCR with Stratagene PCR equipment (La Jolla, Calif.). Zhong H., et al. “A2B adenosine receptors increase cytokine release by bronchial smooth muscle cells, “American Journal of Respiratory Cell and Molecular Biology, 30(1): 118-125 (2004).
HPASMs were incubated in the presence of NECA (10 μM) or NECA (10 μM) together with Compound A (100 nM) for 1.5 hours. A real-time-RT-PCR array focusing on genes involved in tissue remodeling were conducted on the RNAs isolated from the HPASMs. NECA increased the mRNA expression of ADAMTS1, ADAMTS8, CDH1, MMPI, MMP12, HAS1, ITGA7, COL1A1, COL8A1 and CTGF (FIG. 12A-B).

HPASMs [5] = test: NECA-induced expression of NOTCH3 in HPASMs (real-time RT-PCR); assay type: cell-based, human; conditions: NECA 10 μM along with Compound A 100 nM, 1.5 hours
Description: as §4
HPASMs were incubated with NECA (10 μM) or NECA (10 μM) along with Compound A (100 nM) for 1.5 hours. The expression of NOTCH3 was measured by quantitive real-time RT-PCR using the methodologies described above.

HPASMs [6] = test: Thromboxane B2 release from HPASMs (ELISA); assay type: cell-based, human; conditions: NECA 10 μM with Compound A 100 nM, 18 hours
Description: as §1, §2, §3

[7] = system: Male C57BL6 mice treated with bleomycin (BLM); test: Bleomycin-induced pulmonary hypertension associated with chronic lung disease in mice; assay type: in vivo
Description: Methods: Male C57BL6 mice were treated with bleomycin (BLM) at 0.035 units per mouse, or vehicle (phosphate buffered saline (PBS)) intra-peritoneally twice weekly for 4 weeks. When pulmonary fibrosis was established, on day 15, mice were provided with special chow containing an A2B receptor antagonist, Compound A (˜10 mg/kg/day dose), for the next 18 days (FIG. 15). In contrast, control groups received normal chow.
On day 33, right ventricle systolic pressure (RVSP), systemic blood pressure, heart rate and lung function measurements were performed. Additionally, the lungs were collected for immunohistochemistry (IHC) for α-smooth muscle actin (αSMA).
Statistical Analysis: All data were analyzed using a 1-way ANOVA with a Newman-Keuls post test. The software used to conduct the statistical analysis was Graph-Pad Prism v5.00 (La Jolla Calif.). In all related figures, significance levels: *P<0.05, **[…]<P<0.01, ***P<0.001 refer to comparisons between PBS and BLM groups; significance levels: #P<0.05, # # 0.001<P<0.01, # # # P<0.001 refer to comparisons between BLM and BLM+Compound A groups. All values in the figures represent mean±SEM (standard error or the mean) for 5-8 mice per group.

HPAECs [8] = test: Release of IL-8 in endothelial cells (ELISA); assay type: cell-based, human; conditions: NECA 10 μM with Compound A 100 nM, 18 hr
Description: as §1, §2
HPAECs were incubated in basal medium in the absence or presence of NECA (N-ethylcarboxamide adenosine) at various concentrations (0.1 μM, 1 μM, and 10 μM) and Compound A (100 nM) for 18 hours. NECA is a known adenosine agonist of A1 and A2 subtypes. The amount of IL-8, provided in pg/mL, was measured by ELISA.

HPASMs [9] = test: Effect of NECA-activated HPAECs on proliferation of HPASMs (cell count); assay type: cell-based, human; conditions: supernatant of HPAECs treated with NECA 10 μM and Compound A 100 nM for 18 hours; HPASMs 18 hours
Description: as §1
Cell supernatants were collected from HPAECs treated with vehicle (control medium), NECA (10 μM, NECA medium) or NECA and Compound A (100 nM) for 18 hours. These cell supernatants (diluted 1:1 in […] basal medium) with or without ambrisentan (30 nM) were used to incubate HPASMs for 18 hours. Cells were counted. NECA-HPAEC medium increased cell number of HPASMs at 18 hours compared to control-HPAEC medium.

HPAECs [10] = test: Endothelin-1 release from HPAECs (ELISA); assay type: cell-based, human; conditions: NECA 10 μM with Compound A 100 nM, 18 hr
Description: as §1, §2
HPAECs were incubated in the absence or presence of NECA at various concentrations (0.1 μM, 1 μM, and 10 μM) and Compound A (100 nM) for 18 hours. The amount of ET-1, provided in pg/mL was measured by the ELISA protocol discussed above.

[11] = mice, Compound A ~10 mg/kg/day in chow day 15 to 33, day 33
[12] = mice, Compound A ~10 mg/kg/day in chow day 15 to 33, α-SMA immunostaining
[13] = mice, Compound A ~10 mg/kg/day in chow, Flexivent

CCCn1c(=O)c2[nH]c(-c3cnn(Cc4cccc(C(F)(F)F)c4)c3)nc2n(CC)c1=O [Compound A, 3-ethyl-1-propyl-8-(1-(3-(trifluoromethyl)benzyl)-1H-pyrazol-4-yl)-1H-purine-2,6(3H,7H)-dione]
markedly reduced: NECA-induced release of G-CSF (HPASMs [2]) | NECA-induced release of IL-6 (HPASMs [2]) | NECA-induced release of IL-8 (HPASMs [2]) | NECA-induced release of thromboxane B2 (HPASMs [6]) | NECA-induced release of IL-8 (HPAECs [8]) | NECA-induced release of ET-1 (HPAECs [10])
drastically reduced: vascular wall thickening [3]
attenuated: BLM-decreased arterial oxygenation levels ([7]; awake mice, Compound A ~10 mg/kg/day in chow, pulse oximetry) | BLM-induced increase in peri-vascular fibrosis (total collagen levels in the lung) ([7]; mice, Compound A ~10 mg/kg/day in chow day 15 to 33, Masson's trichrome) | BLM-induced increase in RV hypertrophy [7, 11] | BLM-induced increase in RVSP [7, 11] | BLM-induced increase in extent of vascular muscularization [7, 12] | BLM-induced increase in number of muscularized vessels [7, 12] | BLM-increased dynamic resistance of the lungs [7, 13] | BLM-increased quasi-static elastance [7, 13] | BLM-increased tissue damping [7, 13]
significantly attenuated: BLM-induced increase of interleukin (IL)-6 level ([7]; mice, BALF and plasma, day 33, ELISA, Compound A ~10 mg/kg/day in chow) | BLM-induced increase of ET-1 ([7]; mice, plasma (ELISA) and pulmonary vessel wall, Compound A ~10 mg/kg/day in chow)
reduced: NECA-induced mRNA expression of ADAMTS1, ADAMTS8, CDH1, MMPI, MMP12, HAS1, ITGA7, COL1A1, COL8A1 and CTGF (HPASMs [4])
inhibited: NECA-induced increase in smooth muscle cell migration (HPASMs [1]) | increase of NOTCH3 expression induced by NECA (HPASMs [5]) | NECA induced proliferation of HPASMs (HPASMs [9])
